In patent US20050197350A1, “Novel quinoline, tetrahydroquinazoline, and pyrimidine derivatives and methods of treatment related to the use thereof” (TAISHO PHARMACEUTICAL CO., LTD., priority 2003, published 2005):

tested on: MCH receptors; experiment: MCH receptor activity class (method not given); conditions: MCH receptor activity class 1-3 (percent of control at 10^-7 M or IC50)

Row | Structure (SMILES) | class
1 | Cc1cc(Cl)ccc1NC(=S)N[C@H]1CC[C@@H](Nc2cc(N(C)C)c3ccccc3n2)CC1 [compound 2286] | 3 (Class 3 The value of percent of control at 10^−7 M was more than 60% or the value of IC50 was more than 200 nM.)
2 | CN(C)c1cc(N[C@H]2CC[C@@H](NC(=S)NCc3cccc4ccccc34)CC2)nc2ccccc12 [compound 2287] | 3 (Class 3 The value of percent of control at 10^−7 M was more than 60% or the value of IC50 was more than 200 nM.)
3 | COc1cccc(CNC(=S)N[C@H]2CC[C@@H](Nc3cc(N(C)C)c4ccccc4n3)CC2)c1OC [compound 2288] | 3 (Class 3 The value of percent of control at 10^−7 M was more than 60% or the value of IC50 was more than 200 nM.)
4 | Cc1cc(C)c(NC(=S)N[C@H]2CC[C@@H](Nc3cc(N(C)C)c4ccccc4n3)CC2)cc1C [compound 2289] | 3 (Class 3 The value of percent of control at 10^−7 M was more than 60% or the value of IC50 was more than 200 nM.)
5 | CN(C)c1cc(N[C@H]2CC[C@@H](NC(=S)Nc3ccccc3-c3ccccc3)CC2)nc2ccccc12 [compound 2290] | 3 (Class 3 The value of percent of control at 10^−7 M was more than 60% or the value of IC50 was more than 200 nM.)
6 | Cc1cc([N+](=O)[O-])ccc1NC(=S)N[C@H]1CC[C@@H](Nc2cc(N(C)C)c3ccccc3n2)CC1 [compound 2291] | 3 (Class 3 The value of percent of control at 10^−7 M was more than 60% or the value of IC50 was more than 200 nM.)
7 | CN(C)c1cc(N[C@H]2CC[C@@H](NC(=S)NCc3cccc(Cl)c3)CC2)nc2ccccc12 [compound 2292] | 3 (Class 3 The value of percent of control at 10^−7 M was more than 60% or the value of IC50 was more than 200 nM.)
8 | CCOC(=O)c1cccc(NC(=S)N[C@H]2CC[C@@H](Nc3cc(N(C)C)c4ccccc4n3)CC2)c1 [compound 2293] | 3 (Class 3 The value of percent of control at 10^−7 M was more than 60% or the value of IC50 was more than 200 nM.)

same assay, conditions: class by percent of control at 10^-7 M or IC50

Row | Structure (SMILES) | class
9 | COc1ccc(NC(=O)N[C@H]2CC[C@@H](Nc3nccc(N(C)C)n3)CC2)cc1OC1CCCC1 [compound 2253] | 2 (Class 2: The value of percent of control at 10^−7 M was from 40% to 60% or the value of IC′50 was from 50 nM to 200 nM.)
10 | CN(C)c1ccnc(N[C@H]2CC[C@@H](NC(=O)Nc3ccc4c(c3)OCCCO4)CC2)n1 [compound 2254] | 3 (Class 3 The value of percent of control at 10^−7 M was more than 60% or the value of IC50 was more than 200 nM.)
11 | CCCCc1ccc(NC(=O)N[C@H]2CC[C@@H](Nc3nccc(N(C)C)n3)CC2)c(C)c1 [compound 2255] | 3 (Class 3 The value of percent of control at 10^−7 M was more than 60% or the value of IC50 was more than 200 nM.)
12 | Cc1onc(-c2ccccc2)c1NC(=O)N[C@H]1CC[C@@H](Nc2nccc(N(C)C)n2)CC1 [compound 2256] | 3 (Class 3 The value of percent of control at 10^−7 M was more than 60% or the value of IC50 was more than 200 nM.)
13 | CN(C)c1ccnc(N[C@H]2CC[C@@H](NC(=S)Nc3ccc(Br)cc3)CC2)n1 [compound 2257] | 3 (Class 3 The value of percent of control at 10^−7 M was more than 60% or the value of IC50 was more than 200 nM.)
14 | CN(C)c1ccnc(N[C@H]2CC[C@@H](NC(=S)Nc3ccc(C#N)cc3)CC2)n1 [compound 2258] | 2 (Class 2: The value of percent of control at 10^−7 M was from 40% to 60% or the value of IC′50 was from 50 nM to 200 nM.)
15 | CN(C)c1ccnc(N[C@H]2CC[C@@H](NC(=S)Nc3ccc(Cl)cc3Cl)CC2)n1 [compound 2259] | 3 (Class 3 The value of percent of control at 10^−7 M was more than 60% or the value of IC50 was more than 200 nM.)
16 | COc1ccc(NC(=S)N[C@H]2CC[C@@H](Nc3nccc(N(C)C)n3)CC2)c(OC)c1 [compound 2260] | 2 (Class 2: The value of percent of control at 10^−7 M was from 40% to 60% or the value of IC′50 was from 50 nM to 200 nM.)
17 | Cc1cccc(C)c1NC(=S)N[C@H]1CC[C@@H](Nc2nccc(N(C)C)n2)CC1 [compound 2261] | 3 (Class 3 The value of percent of control at 10^−7 M was more than 60% or the value of IC50 was more than 200 nM.)
18 | CCc1cccc(C(C)C)c1NC(=S)N[C@H]1CC[C@@H](Nc2nccc(N(C)C)n2)CC1 [compound 2262] | 3 (Class 3 The value of percent of control at 10^−7 M was more than 60% or the value of IC50 was more than 200 nM.)
19 | COc1ccccc1NC(=S)N[C@H]1CC[C@@H](Nc2nccc(N(C)C)n2)CC1 [compound 2263] | 3 (Class 3 The value of percent of control at 10^−7 M was more than 60% or the value of IC50 was more than 200 nM.)
20 | CN(C)c1ccnc(N[C@H]2CC[C@@H](NC(=S)Nc3cccc4ccccc34)CC2)n1 [compound 2264] | 3 (Class 3 The value of percent of control at 10^−7 M was more than 60% or the value of IC50 was more than 200 nM.)
21 | COc1cc(NC(=S)N[C@H]2CC[C@@H](Nc3nccc(N(C)C)n3)CC2)cc(OC)c1OC [compound 2265, N-(cis-4-{[4-(dimethylamino)pyrimidin-2-yl]amino}cyclohexyl)-N′-(3,4,5-trimethoxyphenyl)thiourea] | 1 (Class 1: The value of percent of control at 10^−7 M was less than 40% or the value of IC50 was less than 50 nM.)
22 | COc1ccc(NC(=S)N[C@H]2CC[C@@H](Nc3nccc(N(C)C)n3)CC2)cc1OC [compound 2266] | 2 (Class 2: The value of percent of control at 10^−7 M was from 40% to 60% or the value of IC′50 was from 50 nM to 200 nM.)
23 | CN(C)c1ccnc(N[C@H]2CC[C@@H](NC(=S)Nc3ccc(N(C)C)c4ccccc34)CC2)n1 [compound 2267] | 2 (Class 2: The value of percent of control at 10^−7 M was from 40% to 60% or the value of IC′50 was from 50 nM to 200 nM.)
24 | CCc1ccccc1NC(=S)N[C@H]1CC[C@@H](Nc2nccc(N(C)C)n2)CC1 [compound 2268] | 3 (Class 3 The value of percent of control at 10^−7 M was more than 60% or the value of IC50 was more than 200 nM.)

Row | Structure (SMILES) | class
25 | COc1cc([N+](=O)[O-])ccc1NC(=S)N[C@H]1CC[C@@H](Nc2cc(N(C)C)c3ccccc3n2)CC1 [compound 2269] | 3 (Class 3 The value of percent of control at 10^−7 M was more than 60% or the value of IC50 was more than 200 nM.)
26 | COc1ccc(C)cc1NC(=S)N[C@H]1CC[C@@H](Nc2cc(N(C)C)c3ccccc3n2)CC1 [compound 2270] | 3 (Class 3 The value of percent of control at 10^−7 M was more than 60% or the value of IC50 was more than 200 nM.)
27 | CN(C)c1cc(N[C@H]2CC[C@@H](NC(=S)Nc3ccc(Br)cc3Cl)CC2)nc2ccccc12 [compound 2271] | 3 (Class 3 The value of percent of control at 10^−7 M was more than 60% or the value of IC50 was more than 200 nM.)
28 | CN(C)c1cc(N[C@H]2CC[C@@H](NC(=S)Nc3ccc(I)cc3)CC2)nc2ccccc12 [compound 2272] | 3 (Class 3 The value of percent of control at 10^−7 M was more than 60% or the value of IC50 was more than 200 nM.)
29 | CN(C)c1cc(N[C@H]2CC[C@@H](NC(=S)Nc3c(Cl)cc(Cl)cc3Cl)CC2)nc2ccccc12 [compound 2274, N-(cis-4-{[4-(dimethylamino)quinolin-2-yl]amino}cyclohexyl)-N′-(2,4,6-trichlorophenyl)thiourea] | 2 (Class 2: The value of percent of control at 10^−7 M was from 40% to 60% or the value of IC′50 was from 50 nM to 200 nM.)
30 | Cc1cc(C)c(NC(=S)N[C@H]2CC[C@@H](Nc3cc(N(C)C)c4ccccc4n3)CC2)c(C)c1 [compound 2275, N-(cis-4-{[4-(dimethylamino)quinolin-2-yl]amino}cyclohexyl)-N′-mesitylthiourea] | 1 (Class 1: The value of percent of control at 10^−7 M was less than 40% or the value of IC50 was less than 50 nM.)
31 | Cc1ccc(NC(=S)N[C@H]2CC[C@@H](Nc3cc(N(C)C)c4ccccc4n3)CC2)c(C)c1 [compound 2276] | 3 (Class 3 The value of percent of control at 10^−7 M was more than 60% or the value of IC50 was more than 200 nM.)
32 | CCc1cccc(CC)c1NC(=S)N[C@H]1CC[C@@H](Nc2cc(N(C)C)c3ccccc3n2)CC1 [compound 2277] | 1 (Class 1: The value of percent of control at 10^−7 M was less than 40% or the value of IC50 was less than 50 nM.)
33 | Cc1ccc(NC(=S)N[C@H]2CC[C@@H](Nc3cc(N(C)C)c4ccccc4n3)CC2)c(Br)c1 [compound 2278] | 3 (Class 3 The value of percent of control at 10^−7 M was more than 60% or the value of IC50 was more than 200 nM.)
34 | CN(C)c1cc(N[C@H]2CC[C@@H](NC(=S)NCc3ccccc3Cl)CC2)nc2ccccc12 [compound 2279] | 3 (Class 3 The value of percent of control at 10^−7 M was more than 60% or the value of IC50 was more than 200 nM.)
35 | CCc1cccc(C)c1NC(=S)N[C@H]1CC[C@@H](Nc2cc(N(C)C)c3ccccc3n2)CC1 [compound 2280] | 3 (Class 3 The value of percent of control at 10^−7 M was more than 60% or the value of IC50 was more than 200 nM.)
36 | CC(C)c1ccccc1NC(=S)N[C@H]1CC[C@@H](Nc2cc(N(C)C)c3ccccc3n2)CC1 [compound 2281] | 3 (Class 3 The value of percent of control at 10^−7 M was more than 60% or the value of IC50 was more than 200 nM.)
37 | COC(=O)c1cccc(NC(=S)N[C@H]2CC[C@@H](Nc3cc(N(C)C)c4ccccc4n3)CC2)c1 [compound 2282] | 3 (Class 3 The value of percent of control at 10^−7 M was more than 60% or the value of IC50 was more than 200 nM.)
38 | Cc1cc(Br)cc(C)c1NC(=S)N[C@H]1CC[C@@H](Nc2cc(N(C)C)c3ccccc3n2)CC1 [compound 2283, N-(4-bromo-2,6-dimethylphenyl)-N′-(cis-4-{[4-(dimethylamino)quinolin-2-yl]amino}cyclohexyl)thiourea] | 1 (Class 1: The value of percent of control at 10^−7 M was less than 40% or the value of IC50 was less than 50 nM.)
39 | Cc1cc(Br)ccc1NC(=S)N[C@H]1CC[C@@H](Nc2cc(N(C)C)c3ccccc3n2)CC1 [compound 2284] | 2 (Class 2: The value of percent of control at 10^−7 M was from 40% to 60% or the value of IC′50 was from 50 nM to 200 nM.)
40 | CN(C)c1cc(N[C@H]2CC[C@@H](NC(=S)Nc3ccc(Br)cc3C(F)(F)F)CC2)nc2ccccc12 [compound 2285] | 2 (Class 2: The value of percent of control at 10^−7 M was from 40% to 60% or the value of IC′50 was from 50 nM to 200 nM.)
